Assay results: US4185015A, “Methoxymethyl 6-[D-2,2-dimethyl-4-(4-hydroxyphenyl)-5-oxo-1-imidazolyl]penicillanate” (priority 1977, dated 1980)
Values after ≈ are worked out from the molar mass of the structure shown. Where two headings read alike, the source gives them in different places.

Assays:
[1] = Bioassay of amoxicillin from the ester; settings: 20 mg. ester in 10 ml. of 50/50 acetone/pH 7.0 buffer
D. pneumoniae = assay: MIC against various organisms (Table I); assay type: cell-based; settings: Streptococcus pneumoniae; D. pneumoniae + 5% serum; read-out: minimum inhibitory concentration
Str. pyogenes [2] = assay: MIC against various organisms (Table I); assay type: cell-based; settings: Streptococcus pyogenes; Str. pyogenes + 5% serum; read-out: minimum inhibitory concentration
S. aureus Smith [3] = assay: MIC against various organisms (Table I); assay type: cell-based; settings: Staphylococcus aureus, read-out: minimum inhibitory concentration
S. aureus BX1633 [4] = assay: MIC against various organisms (Table I); assay type: cell-based; settings: Staphylococcus aureus, read-out: minimum inhibitory concentration
S. aureus [5] = assay: MIC against various organisms (Table I); assay type: cell-based; settings: Staphylococcus aureus, third of three lines, read-out: minimum inhibitory concentration
Sal. enteritidis [6] = assay: MIC against various organisms (Table I); assay type: cell-based; settings: Salmonella enterica, read-out: minimum inhibitory concentration
E. coli Juhl [7] = assay: MIC against various organisms (Table I); assay type: cell-based; settings: Escherichia coli, read-out: minimum inhibitory concentration
E. coli [8] = assay: MIC against various organisms (Table I); assay type: cell-based; settings: Escherichia coli, read-out: minimum inhibitory concentration
K. pneumoniae [9] = assay: MIC against various organisms (Table I); assay type: cell-based; settings: Klebsiella pneumoniae, K. pneumoniae, read-out: minimum inhibitory concentration
Pr. mirabilis [10] = assay: MIC against various organisms (Table I); assay type: cell-based; settings: Proteus mirabilis, read-out: minimum inhibitory concentration
Pr. morganii [11] = assay: MIC against various organisms (Table I); assay type: cell-based; settings: Morganella morganii; Pr. morganii; read-out: minimum inhibitory concentration
Ps. aeruginosa [12] = assay: MIC against various organisms (Table I); assay type: cell-based; settings: Pseudomonas aeruginosa; Ps. aeruginosa; read-out: minimum inhibitory concentration
Ser. marcescens [13] = assay: MIC against various organisms (Table I); assay type: cell-based; settings: Serratia marcescens, read-out: minimum inhibitory concentration
Str. pneumoniae = assay: MIC in Nutrient Broth (Table III); assay type: cell-based; settings: Streptococcus pneumoniae, 10^-3 dilution of overnight broth culture, 45% AAB, 5% serum, 50% broth
Description: (§1) Organism in Nutrient Broth
(§2) *45% AAB 5% serum 50% broth listed above,
(§3) **Dilution of overnight broth culture

Str. pyogenes [14] = assay: MIC in Nutrient Broth (Table III); assay type: cell-based; settings: Streptococcus pyogenes, 10^-3 dilution of overnight broth culture, 45% AAB, 5% serum, 50% broth
Description: as §1, §2, §3

E. coli Juhl [15] = assay: MIC in Nutrient Broth (Table III); assay type: cell-based; settings: Escherichia coli; E. coli Juhl (10^-4)
Description: as §1, §3

E. coli [16] = assay: MIC in Nutrient Broth (Table III); assay type: cell-based; settings: Escherichia coli; E. coli (10^-4)
Description: as §1, §3

Ent. cloacae = assay: MIC in Nutrient Broth (Table III); assay type: cell-based; settings: Enterobacter cloacae, Ent. cloacae (10^-4)
Description: as §1, §3

K. pneumoniae [17] = assay: MIC in Nutrient Broth (Table III); assay type: cell-based; settings: Klebsiella pneumoniae
Description: as §1, §3

Pr. mirabilis [18] = assay: MIC in Nutrient Broth (Table III); assay type: cell-based; settings: Proteus mirabilis; Pr. mirabilis (10^-4)
Description: as §1, §3

Pr. morganii [19] = assay: MIC in Nutrient Broth (Table III); assay type: cell-based; settings: Morganella morganii
Description: as §1, §3

Ps. aeruginosa [20] = assay: MIC in Nutrient Broth (Table III); assay type: cell-based; settings: Pseudomonas aeruginosa
Description: as §1, §3

S. aureus BX1633 [21] = assay: MIC in Nutrient Broth (Table III); assay type: cell-based; settings: Staphylococcus aureus
Description: as §1, §3

S. aureus Meth.-Res. = assay: MIC in Nutrient Broth (Table III); assay type: cell-based; settings: Staphylococcus aureus
Description: as §1, §3

S. aureus Smith [22] = assay: MIC in Nutrient Broth (Table III); assay type: cell-based; settings: Staphylococcus aureus, S. aureus Smith (10^-4)
Description: as §1, §3

Sal. enteritidis [23] = assay: MIC in Nutrient Broth (Table III); assay type: cell-based; settings: Salmonella enterica; Sal. enteritidis (10^-4)
Description: as §1, §3

Ser. marcescens [24] = assay: MIC in Nutrient Broth (Table III); assay type: cell-based; settings: Serratia marcescens; Ser. marcescens (10^-4)
Description: as §1, §3

in vivo = assay: in vivo; set-up: species or system mice; settings: mouse, po, 50 mg/kg
[25] = Oral absorption in man, BL-P1780 Study 101; settings: for Cmax: saliva
Protocol: (§4) Only the latter are biologically active per se. Also, both original ester and parent penicillin were measured.
Three formulations were each administered once orally to six (6) healthy adult male subjects in BL-P1780 Study 101 as follows:
A. BL-P1780, 500 mg. (of amoxicillin-equivalent activity) as two 250 mg. buffered tablets.
B. BL-P1780, 500 mg. (an amoxicillin-equivalent activity) as two 250 mg. buffered tablets with 3.5 g. sodium bicarbonate being taken five minutes prior to the adminstration of BL-P1780.
C. Amoxicillin, 500 mg. as two 250 mg. capsules.
1. To investigate the human safety and tolerance of single 500 mg. doses of BL-P1780.
2. To determine the effect of intragastric buffering with sodium bicarbonate on the absorption of BL-P1780.
3. To compare amoxicillin plasma and saliva concentrations and urinary excretion between BL-P1780 and amoxicillin.

[26] = in vivo
Protocol: as §4

S. aureus [27] = assay: MIC in Nutrient Broth (Table III); assay type: cell-based; settings: Staphylococcus aureus; S. aureus+50% serum (10^-4)
Description: as §1, §3

[28] = second of three lines, read-out: MIC
[29] = third of three lines, read-out: MIC
[30] = K. pneumoniae (10^-4), first of two lines, read-out: MIC
[31] = BX1633, S. aureus BX1633 (10^-3), read-out: MIC
[32] = S. aureus Meth.-Res. (10^-3), 37° C., read-out: MIC
[33] = man, oral 500 mg., six subjects

COCOC(=O)[C@@H]1N2C(=O)[C@@H](NC(=O)[C@H](N)c3ccc(O)cc3)[C@H]2SC1(C)C [Example 5, methoxymethyl ester of amoxicillin]
bioassay of amoxicillin [1]: 1968 µg/mL
bioassay of amoxicillin, percent of theory [1]: about 110 % of theory

COCOC(=O)[C@@H]1N2C(=O)[C@@H](N3C(=O)[C@@H](c4ccc(O)cc4)NC3(C)C)[C@H]2SC1(C)C [Example 8, methoxymethyl 6-[D-(-)-2,2-dimethyl-4-(4-hydroxyphenyl)-5-oxo-1-imidazolyl]-penicillanate]
MIC (D. pneumoniae): 0.004 µg/mL
MIC (Str. pyogenes [2]): 0.004 µg/mL
MIC (S. aureus Smith [3]; S. aureus Smith + 50% serum): 0.06 µg/mL
MIC (S. aureus Smith [3]; S. aureus Smith): 0.06 µg/mL (≈ 0.133 µM)
MIC (S. aureus BX1633 [4]; BX1633, S. aureus BX1633, first of two lines): 125 µg/mL (≈ 278 µM)
MIC (S. aureus BX1633 [4]; BX1633, S. aureus BX1633, second of two lines): > 125 µg/mL
MIC (S. aureus [5]): > 125 µg/mL
MIC (Sal. enteritidis [6]): 0.13 µg/mL (≈ 0.289 µM)
MIC (E. coli Juhl [7]): 1 µg/mL (≈ 2.22 µM)
MIC (E. coli [8]): 32 µg/mL (≈ 71.2 µM)
MIC (K. pneumoniae [9]; first of two lines): 0.16 µg/mL (≈ 0.356 µM)
MIC (K. pneumoniae [9]; second of two lines): > 125 µg/mL
MIC (Pr. mirabilis [10]): 0.16 µg/mL (≈ 0.356 µM)
MIC (Pr. morganii [11]): 32 µg/mL (≈ 71.2 µM)
MIC (Ps. aeruginosa [12]): > 125 µg/mL
MIC (Ser. marcescens [13]): 32 µg/mL (≈ 71.2 µM)
MIC (Str. pneumoniae): 0.008 µg/mL (≈ 0.0178 µM)
MIC (Str. pyogenes [14]): 0.008 µg/mL (≈ 0.0178 µM)
MIC (E. coli Juhl [15]): 1 µg/mL (≈ 2.22 µM)
MIC (E. coli [16]): 32 µg/mL (≈ 71.2 µM)
MIC (Ent. cloacae; first of three lines, read-out: MIC): 125 µg/mL (≈ 278 µM)
MIC (Ent. cloacae; [28]): 125 µg/mL (≈ 278 µM)
MIC (Ent. cloacae; [29]): 63 µg/mL (≈ 140 µM)
MIC (K. pneumoniae [17]; [30]): 0.13 µg/mL (≈ 0.289 µM)
MIC (K. pneumoniae [17]; K. pneumoniae (10^-4), second of two lines, read-out: MIC): > 125 µg/mL
MIC (Pr. mirabilis [18]): 0.25 µg/mL (≈ 0.556 µM)
MIC (Pr. morganii [19]; Pr. morganii (10^-4), read-out: MIC): > 125 µg/mL
MIC (Ps. aeruginosa [20]; Ps. aeruginosa (10^-4), read-out: MIC): > 125 µg/mL
MIC (S. aureus BX1633 [21]; BX1633, S. aureus BX1633 (10^-2), read-out: MIC): > 125 µg/mL
MIC (S. aureus BX1633 [21]; [31]): 16 µg/mL (≈ 35.6 µM)
MIC (S. aureus Meth.-Res.; S. aureus Meth.-Res. (10^-3), 28° C., read-out: MIC): 63 µg/mL (≈ 140 µM)
MIC (S. aureus Meth.-Res.; [32]): 125 µg/mL (≈ 278 µM)
MIC (S. aureus Smith [22]): 0.13 µg/mL (≈ 0.289 µM)
MIC (Sal. enteritidis [23]): 1 µg/mL (≈ 2.22 µM)
MIC (Ser. marcescens [24]): > 125 µg/mL
concentration at 0.5 h (in vivo): 4800 ng/mL
concentration at 1 h (in vivo): 3500 ng/mL
concentration at 2 h (in vivo): 1700 ng/mL
concentration at 3.5 h (in vivo): 700 ng/mL
need of intragastric buffering for bioavailability or tissue distribution ([25]; in vivo, po): not necessary
tissue distribution of amoxicillin from BL-P1780 over that of ampicillin, amoxicillin or ampicillin from sarpicillin [26]: markedly improved tissue distribution
hydrolysis of the ester ([26]; po): hydrolyze eventually to their parent penicillins

CC1(C)S[C@@H]2[C@H](NC(=O)[C@H](N)c3ccccc3)C(=O)N2[C@H]1C(=O)O [Sodium Ampicillin]
MIC (Str. pneumoniae): 0.016 µg/mL
MIC (Str. pyogenes [14]): 0.008 µg/mL
MIC (E. coli Juhl [15]): 2 µg/mL
MIC (E. coli [16]): 16 µg/mL
MIC (Ent. cloacae; first of three lines): > 125 µg/mL
MIC (Ent. cloacae; [28]): 32 µg/mL
MIC (Ent. cloacae; [29]): 63 µg/mL
MIC (K. pneumoniae [17]): 125 µg/mL
MIC (K. pneumoniae [17]; [30]): 0.5 µg/mL
MIC (Pr. mirabilis [18]): 0.25 µg/mL
MIC (Pr. morganii [19]): > 125 µg/mL
MIC (Ps. aeruginosa [20]): > 125 µg/mL
MIC (S. aureus BX1633 [21]; BX1633): > 125 µg/mL
MIC (S. aureus BX1633 [21]; [31]): 32 µg/mL
MIC (S. aureus Meth.-Res.): > 125 µg/mL
MIC (S. aureus Meth.-Res.; [32]): 32 µg/mL
MIC (S. aureus Smith [22]): 0.06 µg/mL
MIC (S. aureus [27]): 0.13 µg/mL
MIC (Sal. enteritidis [23]): 0.13 µg/mL
MIC (Ser. marcescens [24]): 32 µg/mL

CC1(C)S[C@@H]2[C@H](NC(=O)[C@H](N)c3ccc(O)cc3)C(=O)N2[C@H]1C(=O)O [amoxicillin, D-6-(p-hydroxy-α-aminophenylacetamido)penicillanic acid]
Cmax ([25]; human, po, 500 mg, maximum saliva amoxicillin level, man, oral 500 mg.): 60 ng/mL
Cmax ([25]; human, po, 500 mg, mean peak saliva amoxicillin level, man, oral 500 mg.): 30 ng/mL
dose excreted at 24 h ([25]; human, urine, po, 500 mg): 50.9%
time course of saliva amoxicillin levels ([25]; man, oral 500 mg.): delayed and erratic
subjects found to be slow absorbers [25, 33]: Two of the six subjects
subjects with detectable saliva amoxicillin levels [25, 33]: only 3 of the 6 subjects
